Values of other authors in patent US20060068015A1, “Solid dosage form comprising a fibrate and a statin” (priority 2003, published 2006).

Tests used:
[1] = for solubility in water: water / distilled water

CC[C@H](C)C(=O)O[C@H]1C[C@H](O)C=C2C=C[C@H](C)[C@H](CC[C@@H](O)C[C@@H](O)CC(=O)O)[C@H]21 [Pravastatin]
solubility in water [1]: water-soluble | bioavailability (oral administration): about 30%

CC(C)c1c(C(=O)Nc2ccccc2)c(-c2ccccc2)c(-c2ccc(F)cc2)n1CC[C@@H](O)C[C@@H](O)CC(=O)O [Atorvastatin]
systemic availability of HMG-COA reductase inhibitory activity (oral administration): approximately 30%

CC[C@H](C)C(=O)O[C@H]1C[C@H](O)C=C2C=C[C@H](C)[C@H](CC[C@@H](O)C[C@@H](O)CC(=O)[O-])[C@H]21.[Na+] (relative stereo) [Pravastatin sodium, 1-naphthalene-heptanoic acid, 1,2,6,7,8,8a-hexahydro-(beta), (beta),6-trihydroxy-2-methyl-8-(2-methyl-1-oxobutoxy)-, monosodium salt, [1S-[1(alpha)((beta)S*,(beta)S*),2(alpha),6(alpha), 8(beta)(R*),8a(alpha)]]-]
solubility in acetone ([1]; acetone): practically insoluble | solubility in acetonitrile ([1]; acetonitrile): practically insoluble | solubility in chloroform ([1]; chloroform): practically insoluble | solubility in ether ([1]; ether): practically insoluble

CC(C)n1c(/C=C/C(O)CC(O)CC(=O)O)c(-c2ccc(F)cc2)c2ccccc21 (stereo not shown) [fluvastatin]
solubility in water [1]: water-soluble

CC(C)(Oc1ccc(C(=O)c2ccc(Cl)cc2)cc1)C(=O)O [Fenofibric acid]
elimination half-life (in vivo): about 20 hours

O=C(O)C[C@H](O)C[C@H](O)/C=C/c1c(C2CC2)nc2ccccc2c1-c1ccc(F)cc1 [pitavastatin]
solubility in water [1]: poor water-solubility

CC[C@H](C)C(=O)O[C@H]1C[C@@H](C)C=C2C=C[C@H](C)[C@H](CC[C@@H]3C[C@@H](O)CC(=O)O3)[C@H]21 [lovastatin]
solubility in water [1]: poor water-solubility

CC(C)c1nc(N(C)S(C)(=O)=O)nc(-c2ccc(F)cc2)c1/C=C/[C@@H](O)C[C@@H](O)CC(=O)O [Rosuvastatin]
solubility in water [1]: poor water-solubility | bioavailability (oral administration): about 50%
